Assay results from patent US11337990B2, “Human milk oligosaccharides to promote growth of beneficial bacteria” (ABBOTT LABORATORIES, priority 2010, dated 2022).
Entries after “also recorded” stand apart in the source; their conditions may differ.

Key:
Bifidobacterium spp. = test: qPCR of bacterial populations in in vitro fecal fermentation; type: cell-based; conditions: overall, 0-12 h fermentation
bifidobacteria strains = test: Bacterial growth assay (OD600), panel of 12 strains; type: cell-based, Bifidobacterium; conditions: 1% carbohydrate in sMRS+cysteine
Experimental: Coy Laboratory Products, Grass Lake, Mich.). Subsequently, the cultures are passed twice on a semi-synthetic MRS medium ([…] which is supplemented with 1% (w/v) filter-sterilized glucose as the sole carbohydrate source. […] For bifidobacteria strains, the same procedure is followed except all media are supplemented with 0.5 g/l L-cysteine/HCl. [table] After the 2nd pass in sMRS+glucose+cysteine, the cultures are washed once with 10 mL of sterile sMRS+cysteine (no carbohydrate), resuspended in 10 ml of sterile sMRS+cysteine (no carbohydrate) and then used as a 1% inoculum. The carbohydrates are sterilized with a 0.22 micron filter and used at a 1% final concentration. Cell growth is performed in 250 μL of sMRS+cysteine covered with 50 μL of mineral oil in a Bioscreen 100-well Honeycomb plate. […] The plate reader is operated in discontinuous mode, with absorbance readings performed in 30-minute intervals, and preceded by 30-second shaking intervals at maximum speed. Controls consist of inoculated medium lacking carbohydrate. […] All three plates include a positive control (glucose) and negative control (no carbohydrate). The OD600 data for each carbohydrate is corrected by subtracting the OD600 of the basal media (sMRS)+cysteine from the sample plate for each probiotic. Maximum OD is determined by inspection of the corrected growth data. OD is determined by subtracting the initial corrected OD (time point 0) from the maximum corrected OD. Samples are grown in biologically independent triplicates and the resulting growth kinetic data are expressed as the mean of these replicates. For the growth curve plots, OD600 vs. time is first plotted for the bacteria grown on medium lacking carbohydrate (sMRS). For all other carbohydrates, the OD600 data is corrected by subtracting the OD600 of sMRS.

B. breve ATCC 15700 = test: Bacterial growth assay (OD600); type: cell-based, Bifidobacterium breve; conditions: 1% carbohydrate in sMRS+cysteine
Experimental: Coy Laboratory Products, Grass Lake, Mich.). Subsequently, the cultures are passed twice on a semi-synthetic MRS medium ([…] which is supplemented with 1% (w/v) filter-sterilized glucose as the sole carbohydrate source. […] For bifidobacteria strains, the same procedure is followed except all media are supplemented with 0.5 g/l L-cysteine/HCl. […] After the 2nd pass in sMRS+glucose+cysteine, the cultures are washed once with 10 mL of sterile sMRS+cysteine (no carbohydrate), resuspended in 10 ml of sterile sMRS+cysteine (no carbohydrate) and then used as a 1% inoculum. The carbohydrates are sterilized with a 0.22 micron filter and used at a 1% final concentration. Cell growth is performed in 250 μL of sMRS+cysteine covered with 50 μL of mineral oil in a Bioscreen 100-well Honeycomb plate. […] The plate reader is operated in discontinuous mode, with absorbance readings performed in 30-minute intervals, and preceded by 30-second shaking intervals at maximum speed. Controls consist of inoculated medium lacking carbohydrate. […] Maximum OD is determined by inspection of the corrected growth data. OD is determined by subtracting the initial corrected OD (time point 0) from the maximum corrected OD. Samples are grown in biologically independent triplicates and the resulting growth kinetic data are expressed as the mean of these replicates. […]

HT-29 cells = test: HT-29 cell proliferation, BrdU assay; type: cell-based, human
Experimental: In a first experiment, HT-29 cells, which model the immature epithelial cells of the small intestine, are incubated in a humidified atmosphere of 5% carbon dioxide at 37 C in the presence of LNnT at concentrations of 0 mg/L (“0”), 100 mg/L (“100”), 200 mg/L (“200”), and 400 mg/L (“400”) for either 48 hours or 72 hours. The culture medium utilized is Dulbecco's Modified Eagle Medium (Life Technologies, Foster City Calif.) supplemented with 10% fetal calf serum and 2 mM glutamine. The control consists of a combination of 91.5 mg lactose and 62.4 mg galactosamine (“LG”) per Liter of the Dulbecco's Modified Eagle Medium set forth above. The impact of the LNnT at various levels and the control on HT-29 cell proliferation is measured using a conventional BrdU assay, which measures the number of cells that have recently synthesized DNA.
In a first experiment, HT-29 cells, which model the immature epithelial cells of the small intestine, are incubated in a humidified atmosphere of 5% carbon dioxide at 37° C. in the presence of LNnT or 2′FL at concentrations of 0 mg/L (“0”), 20 mg/L (“20”), 200 mg/L (“200”), and 2000 mg/L (“2000”) or in the presence of 6′SL at concentrations of 0 mg/mL (“0”), 40 mg/mL (“40”), 400 mg/mL (“400”), and 4000 mg/mL (“4000”) for 72 hours. The culture medium utilized is Dulbecco's Modified Eagle Medium (Life Technologies, Foster City Calif.) supplemented with 10% fetal calf serum and 2 mM glutamine. The controls (“energy”) consist of 91.5 mg lactose and 64.2 mg N-acetyllactosamine/L for LNnT; 133 mg lactose and 67 mg fucose/L for 2′FL; and 195 mg lactose and 205 mg/L sialic acid for 6′SL. The impact of the LNnT, 2′FL, and 6′SL at various levels and the controls on HT-29 cell proliferation is measured using a conventional BrdU assay, which measures the number of cells that have recently synthesized DNA. […] Additionally, the impact of LNnT, 2′FL, and 6′SL at various levels and the controls on the alkaline phosphatase activity per milligram of protein for HT-29 cells, which is an indicator of cell differentiation, is measured.

Caco-2 cells = test: Transepithelial resistance (barrier function), Caco-2, Ussing chambers; type: cell-based, human; conditions: Example 48, more mature Caco-2 cells
From the text: FIGS. 46-48 illustrate the effect of LNnT, 2′FL, and 6′SL on cell resistance (transepithelial resistance), which is a marker for epithelial barrier function, wherein a higher resistance is associated with a higher barrier function. Epithelial cell resistance or barrier function is a measure of differentiated epithelial cell function. Specifically, as the cells mature, tighter junctions between the cells are formed resulting in a stronger epithelial cell barrier. This barrier prevents the movement of large molecules, bacteria, or viruses from one side of the barrier to the other. […] Transepithelial resistance is measured using Transwell Snapwell inserts containing the desired cell culture were transferred to modified Ussing chambers and bathed in modified Kreb's solution at 37 C with 95% oxygen and 5% carbon dioxide. Transepithelial resistance was measured as the passive transport of ions across the monolayers.

CC(=O)N[C@H]1[C@H](O[C@H]2[C@@H](O)[C@@H](CO)O[C@@H](O[C@H]3[C@H](O)[C@@H](O)C(O)O[C@@H]3CO)[C@@H]2O)O[C@H](CO)[C@@H](O[C@@H]2O[C@H](CO)[C@H](O)[C@H](O)[C@H]2O)[C@@H]1O (mixture of isomers) [LNnT, Lacto-N-neotetraose] was tested, and the bifidobacteria populations (Bifidobacterium spp.) was “may also be bifidogenic; also recorded: tended to generally increase bifidobacteria levels”, the “growth / ability to ferment (OD600)” value (bifidobacteria strains) was “B. breve ATCC 15700, B. infantis ATCC 15697 and B. infantis M-63 are able to ferment” and the “growth / ability to ferment (OD600)” value (B. breve ATCC 15700) was “grow well”. For the same compound, the HT-29 cell proliferation (HT-29 cells; Example 47: 100, 200, 400 mg/L, 48 or 72 hours) was “reduced HT-29 cell proliferation; also recorded: inhibits intestinal cell proliferation”, the HT-29 cell proliferation (HT-29 cells; Example 48: LNnT or 2′FL 20, 200, 2000 mg/L, 6′SL 40, 400, 72 hours) was “capable of reducing cell proliferation at higher doses; also recorded: inhibits intestinal cell proliferation in immature epithelial cells” and the “cell resistance (transepithelial resistance), barrier function” value (Caco-2 cells) was “can have a positive effect on cell resistance; also recorded: can positively affect barrier function of more mature cells”.
